Assay [1] relates to stromal cells extracted from human endometrium tissue. Kind of assay: Antiproliferative activity, MTT colorimetric method. The class given is cell-based. How it is done: Negative control: stromal cells of endometrioma incubated with 200 μL of culture medium supplemented with 10% fetal bovine serum and 0.1% DMSO. After calculating the concentrations, the test substances were diluted in 100% DMSO, with stock solution concentrations being of 1 mM to ethinyl estradiol and 10 mM to Dienogest, Resveratrol and Danazol. The use solution was obtained by 1:10 serial dilutions in culture medium supplemented with 10% of fetal bovine serum and 1% of antibiotic/antimycotic. The final concentration of DMSO in the solutions was 0.1%. Endometrium tissues were obtained from 2 voluntary donors by means of videolaparoscopy, by signing the respective terms of consent and ages between 18 and 45 years. A fragment was taken from tissue samples for histological confirmation of endometriosis and the remaining was packaged in sterile flask containing culture medium DMEM/Ham's F12 (Gibco®) with ampicillin and streptomycin (Merck®) antibiotics, and they were taken immediately to the laboratory. […] The resulting suspension was centrifuged and re-suspended in culture medium, and it was then transferred to a 25 cm^2 culture bottle. The purity of cell cultures was tested by immunocytochemistry using rabbit anti-human vimentin monoclonal primary antibody (Spring Bioscience TM) and rabbit anti-IgG secondary polyclonal antibody from goat labeled with Texas Red (Invitrogen®). The cells were maintained and amplified in DMEM/Ham's F12 (Gibco®) 10% FBS medium, with […] of antibiotics ampicillin and streptomycin in culture bottle until reaching the sub-confluence (90% of confluence), and then they were transferred to 96-well plates for conducting the tests for assessing antiproliferative activity. Cells were transferred to 96-well plates to a density of 10,000 cells per well in culture medium with 10% of SBF and incubated during 48 hours. […] Then, MTT tetrazolium salt was added (Invitrogen) at a concentration of 1 mg/mL, according to the incubation periods described in the manufacturer's manual. Cell proliferation was indirectly evaluated using the MTT colorimetric method (Invitrogen) and absorbance measurement at 540 nm in SpectraMax M2 plate reader-Molecular Devices with SoftMax […].2 software. By following this procedure, results of antiproliferative activity. of drugs on cells can be obtained. Data were calculated with the ratio of values obtained from cultures exposed (and in different concentrations, combined or not) and cultures not exposed to drugs. The reference of 100% of cell viability, cells cultured without the presence of drugs, was considered.

For assay [2], the system named is patients with intramural myoma, adenomyosis and endometriosis. The assay can be described thus: Uterus volume before and after treatment, 30 patients (plus comparative resveratrol-only patients). Format: in vivo, human. How it is done:
An experiment was carried out with 30 patients treated with combinations of drospirenone, ethinyl estradiol and resveratrol, as well as with combinations of gestinol and resveratrol, evaluating the volume of the uterus before and after the treatment. In the comparative studies with three patients A, B and C, showing intramural myoma treated only with resveratrol, there was observed a 32% increase for patient A, treated during 12 months; 27% increase for patient B, treated during 3 months; and 22% increase for patient C, treated during 1 month.

Take `Oc1ccc(/C=C/c2cc(O)cc(O)c2)cc1` [Resveratrol, trans-3,5,4″-trihidroxystilbene]: the Proliferation in assay [1] (resveratrol alone 1.980 ng/mL, 100% = cells without drugs) was 94.8%; in assay [1] (resveratrol alone 19.800 ng/mL, 100% = cells without drugs), 90.6%; in assay [1] (resveratrol alone 197.970 ng/mL (concentration used in the combination)) it was 94.7%; in assay [1] (resveratrol alone 1979.130 ng/mL), 93.3%; in assay [1] (resveratrol alone 19797.13 ng/mL), 91.1%. In addition, the “increase (intramural myoma, treated only with resveratrol)” value came to 32% in assay [2] (patient A, treated during 12 months); 27% in assay [2] (patient B, treated during 3 months); 22% in assay [2] (patient C, treated during 1 month).
